{"source": "BindingDB's records for doi:10.1021/acs.jmedchem.1c01118", "about": "(Glaxosmithkline, 2021)", "experiment": "Binding affinity to human 6His-thr cIAP1 BIR3 (253 to 363) domain expressed in Escherichia coli measured after 105 mins in dark by time-resolved fluorescence laser-equipped multimode plate reader", "note": "pIC50: −log10 of the molar value.", "data": [{"smiles": "CN[C@@H](C)C(=O)N[C@H](C(=O)N1CCC[C@H]1c1nc(C(=O)c2ccc(F)cc2)cs1)C1CCN(C(=O)c2cnc(N3CCN(CCCOc4cc5ncnc(Nc6n[nH]c(C)c6C)c5cc4S(=O)(=O)C(C)(C)C)CC3)cn2)CC1", "values": [{"measurement": "pIC50", "value": 8.10}]}, {"smiles": "Cc1[nH]nc(Nc2ncnc3cc(OCCCN4CCN(C(=O)c5cnc(N6CCN(C[C@H]7CN[C@H](C)CN7CC(=O)N7CC(C)(C)c8c7cc(Cc7ccc(F)cc7)c(=O)n8C)[C@H](C)C6)nc5)CC4)c(S(=O)(=O)C(C)(C)C)cc23)c1C", "values": [{"measurement": "pIC50", "value": 8.30}]}]}
